For this experiment, the target named is Platelet-derived growth factor receptor (Mus musculus, UniProt P05622+P26618). The experiment in a line: Inhibitory activity against platelet-derived growth factor receptor tyrosine kinase in Swiss 3T3 cells. It is filed as cell-based.

This note sets out measurements from ChEMBL document CHEMBL1129324, “Tyrphostins. 5. Potent inhibitors of platelet-derived growth factor receptor tyrosine kinase: structure-activity relationships in quinoxalines, quinolines, and indole tyrphostins” (J Med Chem, 1996).

A value given as a limit tells only on which side of the number the result lay.

The IC50 is the concentration needed to halve the response being measured. A lower IC50 goes with greater potency in that assay. `c1ccc(-c2nc3ccccc3nc2-c2ccccn2)nc1` showed a half-inhibitory concentration (IC50) of 100 µM.
In turn, `c1ccc(-c2nc3ccccc3nc2-c2ccccc2)cc1` came in with a concentration for half-maximal inhibition (IC50) of more than 50 µM.
Under `c1ccc2nc(-c3c[nH]c4ccccc34)cnc2c1` stands more than 100 µM; under `Cc1cc2nc(CSCCOCCSCc3nc4cc(C)c(C)cc4nc3-c3ccccc3)c(-c3ccccc3)nc2cc1C`, more than 50 µM.
The figure for `c1ccc(-c2ccc(-c3cnc4ccccc4n3)s2)cc1` is more than 100 µM.
`c1coc(-c2nc3ccccc3nc2-c2ccco2)c1`: the IC50 is more than 100 µM.
As to `Clc1cc2ncc(-c3ccccc3)nc2cc1Cl`, the IC50 is more than 50 µM.
Under `c1ccc(-c2cnc3ncccc3n2)cc1` stands 35 µM.
Under `Cc1cc2ncc(-c3ccc(O)c(O)c3)nc2cc1C` stands 0.6 µM; under `Cc1cc2nc(C(=O)O)c(-c3ccccc3)nc2cc1C`, 1 µM; under `CC(C)CCc1ccc(-c2cnc3ccccc3n2)s1`, more than 100 µM.
For the molecule `Cc1cc2nc(CSCCCSCc3nc4cc(C)c(C)cc4nc3-c3ccccc3)c(-c3ccccc3)nc2cc1C`, the IC50 was more than 50 µM.
Consider `c1ccc2nc(-c3ccsc3)cnc2c1`, for which the IC50 was more than 100 µM.
As to `Cc1cc2nc(CSCc3nc4cc(C)c(C)cc4nc3-c3ccccc3)c(-c3ccccc3)nc2cc1C`, the 50% inhibitory concentration (IC50) is more than 50 µM.
Take `Cc1cc2nc3[nH]c4ccc(Br)cc4c3nc2cc1C`: the half-inhibitory concentration (IC50) was more than 50 µM.
Under `CCOP(=O)(Cc1nc2cc(C)c(C)cc2nc1-c1ccccc1)OCC` stands more than 50 µM.
Molecule `Cc1cc2nc(Cl)c(-c3ccccc3)nc2cc1C` returned a 50% inhibitory concentration (IC50) of more than 50 µM.
The figure for `Cc1cc2nc(C=O)c(-c3ccccc3)nc2cc1C` is more than 50 µM; for `COc1cc2nc(-c3ccccc3)cnc2cc1O` it is 100 µM; for `Cc1nc2ccccc2nc1C` it is more than 100 µM.
The figure for `Cc1cc2nc(C)c(C)nc2cc1C` is more than 50 µM; for `Cc1cc2nc(-c3ccccn3)c(-c3ccccn3)nc2cc1C` it is more than 100 µM.
Under `CCOC(=O)c1nc2cc(C)c(C)cc2nc1-c1ccccc1` stands more than 50 µM; under `O=C(c1ccccc1)c1ccc2ncc(-c3ccccc3)nc2c1`, 6 µM; under `Cc1cc2nc(O)c(-c3ccccc3)[n+]([O-])c2cc1C`, more than 50 µM.
In turn, `c1csc(-c2cnc3ccccc3n2)c1` showed a half-maximal inhibitory concentration (IC50) of 100 µM.
Under `COc1cc2nc(O)c(-c3ccccc3)nc2cc1OC` stands more than 50 µM.
Under `Cc1ccc2ncc(-c3ccccc3)nc2c1` stands 90 µM.
Under `Oc1cc2ncc(-c3ccccc3)nc2cc1O` stands more than 100 µM.
`O=[N+]([O-])c1ccc2ncc(-c3ccccc3)nc2c1` came in with an IC50 of 25 µM.
The figure for `c1ccc(-c2cnc3cc4ccccc4cc3n2)cc1` is 0.9 µM; for `c1coc(-c2cnc3ccccc3n2)c1` it is more than 100 µM.
Under `c1ccc(-c2cnc3ccccc3n2)cc1` stands 10 µM; under `Cc1cc2nc(O)c(-c3ccccc3)nc2cc1C`, 10 µM; under `Cc1ccc(-c2cnc3ccccc3n2)s1`, more than 100 µM.
The figure for `O=C(O)c1ccc2ncc(-c3ccccc3)nc2c1` is more than 50 µM; for `Cc1nc2ccccc2nc1-c1ccccc1` it is more than 100 µM.
The molecule `CCOCc1nc2cc(C)c(C)cc2nc1-c1ccccc1` showed an IC50 of more than 50 µM.
Under `Cc1cc2nc(C)c(-c3ccccc3)nc2cc1C` stands more than 50 µM; under `COc1cc2ncc(-c3ccccc3)nc2cc1OC`, 0.8 µM; under `Nc1ncnc2ncc(-c3ccccc3)nc12`, more than 50 µM.
With `Cc1cc2nc(CN(C)C)c(-c3ccccc3)nc2cc1C`, the 50% inhibitory concentration (IC50) was more than 50 µM.
The figure for `Cc1cc2nc(CP(=O)(O)O)c(-c3ccccc3)nc2cc1C` is more than 50 µM.
For the molecule `Cc1cc2nc(CBr)c(-c3ccccc3)nc2cc1C`, the IC50 is more than 50 µM.
The figure for `O=c1nc2[nH]c3ccccc3nc-2c(=O)[nH]1` [ALLOXAZINE] is more than 50 µM.
